The source made the active and inactive calls. The calls are words filed in the database; no cut-off is given here. Where a SMILES comes first, the peptide text is derived from it. Bridges are numbered along the chain shown (N, C = ends). Roman numbers before positions name the chains, in order. Side-chain parts run from the residue outwards. The star is where a group is joined. Fmoc = O=C(OCC1c2ccccc2-c2ccccc21)*
How the values were obtained:
Mus musculus [1] = assay: Antiviral activity against Kunming mouse infected with Influenza A virus (A/Puerto Rico/8/1934(H1N1)) assessed as survival rate at 5 mg/kg, ip administered once a day for 5 days relative to control; type: functional; conditions: 120 h, time 5 day
[2] = AUC in Kunming mouse at 10 mg/kg, ip by HPLC analysis; type: ADME, organism-based; parameters: dose 10 mg/kg, route ip; conditions: in vivo
Influenza A virus [3] = assay: Antiviral activity against Influenza A virus (A/Puerto Rico/8/1934(H1N1)) infected in MDCK cells assessed as reduction in virus induced cytopathic effect pretreated with compound incubated for 1 hrs by MTT assay; type: functional, organism-based
Influenza A virus [4] = assay: Antiviral activity against Influenza A virus (A/Puerto Rico/8/1934(H1N1)) infected in MDCK cells assessed as reduction in virus induced cytopathic effect pre-treated with virus followed by cell infection for 1 hr by MTT assay; type: functional, organism-based
Influenza A virus [5] = assay: Antiviral activity against Influenza A virus (A/Puerto Rico/8/1934(H1N1)) infected in MDCK cells assessed as reduction in virus induced cytopathic effect during infection incubated for 1 hr by MTT assay; type: functional, organism-based
[6] = Cytotoxicity against MDCK cells incubated for 1 hr by MTT assay; type: toxicity, cell-based, Canis lupus familiaris; conditions: dog
[7] = Cytotoxicity against MDCK cells by CCK-8 assay; type: toxicity, cell-based, Canis lupus familiaris; conditions: dog
[8] = Selectivity index, ratio of CC50 for MDCK cells to IC50 antiviral activity against Influenza A virus (A/Puerto Rico/8/1934(H1N1)) infected in MDCK cells assessed as reduction in virus induced cytopathic effect pre-treated with virus; type: toxicity, cell-based; conditions: dog, read-out: Selectivity Index
Influenza A virus [9] = assay: Antiviral activity against Influenza A virus (A/Puerto Rico/8/1934(H1N1)) infected in MDCK cells assessed as reduction in M1 mRNA level at 1 ug/ml measured after 24 hrs post infection by qRT-PCR analysis; type: functional, organism-based; conditions: dose 1.0 µg/ml
Influenza A virus [10] = assay: Antiviral activity against Influenza A virus (A/Puerto Rico/8/1934(H1N1)) infected in MDCK cells assessed as reduction in HA mRNA level at 1 ug/ml measured after 24 hrs post infection by qRT-PCR analysis; type: functional, organism-based; conditions: dose 1.0 µg/ml
Influenza A virus [11] = assay: Antiviral activity against Influenza A virus 699(H3) clinical isolate infected in MDCK cells incubated for 1 hr by MTT assay; type: functional, organism-based
Influenza B virus = assay: Antiviral activity against Influenza B virus 699[…] clinical isolate infected in MDCK cells incubated for 1 hr by MTT assay; type: functional, organism-based
Influenza A virus [12] = assay: Antiviral activity against Influenza A virus (A/Puerto Rico/8/1934(H1N1)) infected in MDCK cells after treatment incubated for 1 hr by MTT assay; type: functional, organism-based
Influenza A virus [13] = assay: Antiviral activity against Influenza A virus (A/Puerto Rico/8/1934(H1N1)) infected in MDCK cells assessed as reduction in viral nucleoprotein expression level at 2 ug/ml pretreated with compound measured after 24 hrs post infection by indirect immunofluorescence assay; type: functional, organism-based; conditions: dose 2.0 µg/ml
Influenza A virus [14] = assay: Antiviral activity against Influenza A virus (A/Puerto Rico/8/1934(H1N1)) infected in MDCK cells assessed as reduction in viral nucleoprotein expression level at 2 ug/ml during infection measured after 24 hrs post infection by indirect immunofluorescence assay; type: functional, organism-based; conditions: dose 2.0 µg/ml
RAW264.7 [15] = assay: Anti-inflammatory activity against mouse RAW264.7 cells assessed as reduction in LPS induced TNF alpha level at 1 ug/ml by qRT-PCR analysis; type: functional, cell-based; conditions: dose 1.0 µg/ml
RAW264.7 [16] = assay: Anti-inflammatory activity against mouse RAW264.7 cells assessed as reduction in LPS induced IL-6 level at 1 ug/ml by qRT-PCR analysis; type: functional, cell-based; conditions: dose 1.0 µg/ml
RAW264.7 [17] = assay: Anti-inflammatory activity against mouse RAW264.7 cells assessed as reduction in influenza A virus induced TNF alpha level at 1 ug/ml by qRT- PCR; type: functional, cell-based; conditions: dose 1.0 µg/ml
RAW264.7 [18] = assay: Anti-inflammatory activity against mouse RAW264.7 cells assessed as reduction in influenza A virus induced IL-1 beta level at 1 ug/ml by qRT- PCR; type: functional, cell-based; conditions: dose 1.0 µg/ml
RAW264.7 [19] = assay: Anti-inflammatory activity against mouse RAW264.7 cells assessed as reduction in influenza A virus induced IL-6 level at 1 ug/ml by qRT- PCR; type: functional, cell-based; conditions: dose 1.0 µg/ml
RAW264.7 [20] = assay: Anti-inflammatory activity against mouse RAW264.7 cells assessed as reduction in LPS induced TNF alpha level at 1 ug/ml by ELISA method; type: functional; conditions: dose 1 µg/ml
RAW264.7 [21] = assay: Anti-inflammatory activity against mouse RAW264.7 cells assessed as reduction in Influenza A virus (A/Puerto Rico/8/1934(H1N1)) induced TNF alpha level at 1 ug/ml by ELISA method; type: functional; conditions: dose 1 µg/ml
RAW264.7 [22] = assay: Anti-inflammatory activity against mouse RAW264.7 cells assessed as reduction in Influenza A virus (A/Puerto Rico/8/1934(H1N1)) induced TNF alpha level at 5 ug/ml by ELISA method; type: functional; conditions: dose 5 µg/ml
RAW264.7 [23] = assay: Anti-inflammatory activity against LPS induced mouse RAW264.7 cells assessed as suppression of NF kappa B expression level at 1.5 ug/ml by luciferase reporter assay; type: functional, cell-based; conditions: dose 1.5 µg/ml
[24] = Half life in Kunming mouse at 10 mg/kg, ip by HPLC analysis; type: ADME, organism-based; conditions: in vivo
Mus musculus [25] = assay: Antiviral activity against Kunming mouse infected with Influenza A virus (A/Puerto Rico/8/1934(H1N1)) assessed as survival rate at 5 mg/kg, ip administered twice a day with a time interval of 12 hrs for 4 days relative to control; type: functional; conditions: 96 h, time 4 day
Mus musculus [26] = assay: Antiviral activity against Kunming mouse infected with Influenza A virus (A/Puerto Rico/8/1934(H1N1)) assessed as survival rate at 1.25 mg/kg, ip administered twice a day with a time interval of 12 hrs for 4 days relative to control; type: functional; conditions: 96 h, time 4 day
Mus musculus [27] = assay: Antiviral activity against Kunming mouse infected with Influenza A virus (A/Puerto Rico/8/1934(H1N1)) assessed as recovery in body weight at 1.25 mg/kg, ip administered twice a day with a time interval of 12 hrs for 4 days measured from day 8 upto 15 days (reference value: 17.58 g); type: functional; conditions: time 15 day
Mus musculus [28] = assay: Antiviral activity against Kunming mouse infected with Influenza A virus (A/Puerto Rico/8/1934(H1N1)) assessed as reduction in viral titer in lung homogenate at 1.25 mg/kg, ip administered twice a day for 3 days after 24 hrs of viral infection; type: functional, organism-based; conditions: time 3.0 day
Mus musculus [29] = assay: Antiviral activity against Kunming mouse infected with Influenza A virus (A/Puerto Rico/8/1934(H1N1)) assessed as reduction in viral titer in lung homogenate at 5 mg/kg, ip administered twice a day for 3 days after 24 hrs of viral infection; type: functional, organism-based; conditions: time 3.0 day
Erythrocyte = assay: Hemolytic activity in chicken erythrocytes at up to 50 uM pre-treated with virus for 30 mins followed by addition of cell measured after 30 mins by microplate reader assay; type: toxicity, cell-based, Gallus gallus; conditions: 0.5 h
Influenza A virus [30] = assay: Antiviral activity against Influenza A Puerto Rico/8/1934/H1N1 infected in human A549 cells assessed as inhibition of viral replication after 24 hrs by hemagglutination assay; type: functional, organism-based
Influenza A virus [31] = assay: Induction of morphological changes in Influenza A Puerto Rico/8/1934/H1N1 assessed as increase in broken edge of the virus incubated for 30 mins by transmission electron microscopic analysis; type: functional, organism-based; conditions: dose 10-50 µg/ml, DDE = dose-dependent effect

SMILES: NCCCC[C@H](NC(=O)OCC1c2ccccc2-c2ccccc21)C(=O)N[C@@H](CCCCN)C(=O)N[C@@H](Cc1c[nH]c2ccccc12)C(=O)N[C@@H](CCCCN)C(=O)NCCCC[C@H](NC(=O)[C@H](CCCCN)NC(=O)[C@H](Cc1c[nH]c2ccccc12)NC(=O)[C@H](CCCCN)NC(=O)[C@H](CCCCN)NC(=O)OCC1c2ccccc2-c2ccccc21)C(=O)NCCCC[C@H](NC(=O)[C@H](CCCCNC(=O)[C@H](CCCCN)NC(=O)[C@H](Cc1c[nH]c2ccccc12)NC(=O)[C@H](CCCCN)NC(=O)[C@H](CCCCN)NC(=O)OCC1c2ccccc2-c2ccccc21)NC(=O)[C@H](CCCCN)NC(=O)[C@H](Cc1c[nH]c2ccccc12)NC(=O)[C@H](CCCCN)NC(=O)[C@H](CCCCN)NC(=O)OCC1c2ccccc2-c2ccccc21)C(=O)NCC(=O)O (I: Fmoc-KKWKK([Lys-Trp-Lys-Lys-Fmoc])KG-OH / II: Fmoc-KKWKK([Lys-Trp-Lys-Lys-Fmoc]); amide I:6-II:C)
- survival at 5 mg/kg (Mus musculus [1]): 20%
- AUC [2]: 11900 ng·h/mL
- IC50 (Influenza A virus [3]): 240 nM
- IC50 (Influenza A virus [4]): 280 nM
- IC50 (Influenza A virus [5]): 310 nM
- CC50 at 1 h [6]: 41900 nM
- CC50 [7]: 37800 nM
- selectivity ratio [8]: 150
- Activity (Influenza A virus [9]): Active
- Activity (Influenza A virus [10]): Active
- IC50 (Influenza A virus [11]): 120 nM
- IC50 (Influenza B virus): 320 nM
- IC50 (Influenza A virus [12]): 320 nM
- Activity (Influenza A virus [13]): Active
- Activity (Influenza A virus [14]): Active
- Activity (RAW264.7 [15]): Active
- Activity (RAW264.7 [16]): Active
- Activity (RAW264.7 [17]): Active
- Activity (RAW264.7 [18]): Active
- Activity (RAW264.7 [19]): Active
- Activity (RAW264.7 [20]): 250.5 pg/mL
- Activity (RAW264.7 [21]): 203 pg/mL
- Activity (RAW264.7 [22]): 328.4 pg/mL
- Activity (RAW264.7 [23]): Active
- half-life [24]: 2.88 h
- survival at 5 mg/kg (Mus musculus [25]): 33%
- survival at 1.25 mg/kg (Mus musculus [26]): 20%
- Activity (Mus musculus [27]): 25.84 g
- Activity (Mus musculus [28]): Active
- Activity (Mus musculus [29]): Active
- Activity (Erythrocyte): Toxic
- Activity (Influenza A virus [30]): Active
- Activity (Influenza A virus [31]): Dde
